Assay results: US12152051B2, “Cyclic dinucleotide analogue, pharmaceutical composition thereof, and application” (SHANGHAI DE NOVO PHARMATECH CO., LTD., priority 2018, dated 2024)

Key:
THP-1 dual cells = assay: Type 1 IFN activation assay (THP-1 dual cells, QUANTI-Luc); assay type: cell-based; conditions: PMA-treated THP-1 dual cells, compound in digitonin PB buffer 30 min, then 24 h, expression level of IFN
Description: Plated THP-1 dual cells (Invivogen) as 100000 cells/well in a 96 well-plate, and then phorbol 12-myristate 13-acetate (PMA) was added and the final concentration of PMA was 30 ng/mL. After 24 h incubation, cells were washed with fresh medium for twice, and 3-folds dilution compounds were added to appropriate wells. The compounds were diluted by PB buffer (50 mM HEPES, 100 mM KCl, 3 mM MgCl2, 0.1 mM DTT, 85 mM sucrose, 1 mM ATP, 0.1 mM GTP, 0.2% o bovine serum albumin and 5 μg/ml digitonin) and the top dose was 10 μM, minimum dose was 0.0015 μM. The cells were incubated for 30 min, and then washed with fresh medium for twice again. Add fresh medium, and the cells were incubated for additional 24 h. After incubation, 10 ul supermant and 50 μL QUANTI-Luc (Invivogen) was add to a 96 well-plate, fluorescence was read with TECAN. The express level of IFN was proportional to the fluorescence intensity. Drew the curve with Graphpad Prism and analyse EC50 of the compounds.

STING = STING (Homo sapiens, UniProt Q86WV6); assay: STING IFNβ secretion assay (THP-1 cells, AlphaLISA IFN-β kit); assay type: cell-based; conditions: 5 h incubation, secretion of IFN-β
Description: Plated 40 uL THP-1 cells (ATCC) as 16000 cells/well in a 96 well-plate (Corning, 3596). 3-folds dilution compounds were added to appropriate wells. The compounds were diluted with buffer (RPMI1640+2 mM L-glutamine+1× non-essential amino acids+1 mM sodium pyruvate+0.5% Fetal bovine serum), and the top dose of the compound was 100 μM, minimum dose was 1.23 μM. After 5 h incubation, […] supernant was added to 384-well plate (Greiner, Cat: 784075) and the secretion of IFN-β was detected with AllphaLISA IFN-β kit(PerkinElmer, Cat:AL577C). 1× buffer was prepared to dilute the receptor and donor, and then 4 μL 20 μg/mL Anti-pIFNβ AlphaLISA receptor was added to every well. After 30 mins incubation at room temperature, 4 μL 2 nM biotinylated Anti-pIFNβ antibody was added to a 384 well-plate, incubated overnight at 4° C. 10 μL 40 µg/mL Streptavidin (SA) donor which was diluted with 1×buffer was added, and then incubated at room temperature for 30 min. Fluorescence was read with TECAN. The expressed level of IFN-β was proportional to the fluorescence intensity. Drew the curve with Graphpad Prism and analysed EC50 of the compounds.

STING, sequence (Q86WV6 whole entry): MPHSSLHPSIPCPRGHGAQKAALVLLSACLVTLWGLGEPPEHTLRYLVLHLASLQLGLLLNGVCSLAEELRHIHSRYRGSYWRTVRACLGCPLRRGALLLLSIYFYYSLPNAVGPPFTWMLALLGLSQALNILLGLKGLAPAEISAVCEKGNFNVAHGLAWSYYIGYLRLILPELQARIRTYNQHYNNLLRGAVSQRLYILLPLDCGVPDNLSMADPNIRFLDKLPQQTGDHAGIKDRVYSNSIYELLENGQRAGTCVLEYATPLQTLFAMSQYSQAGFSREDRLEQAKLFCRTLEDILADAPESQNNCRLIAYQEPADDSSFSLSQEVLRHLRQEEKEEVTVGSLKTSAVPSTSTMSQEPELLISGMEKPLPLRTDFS

SMILES | EC50 (THP-1 dual cells) | EC50 (STING) | EC50 (THP-1 dual cells; Homo sapiens, THP1-Dual)
Nc1nc2c(ncn2[C@@H]2O[C@@H]3COP(=O)(S)O[C@H]4[C@@H](O)[C@H](n5cnc6ncccc6c5=O)O[C@@H]4COP(=O)(S)O[C@@H]2[C@@H]3O)c(=O)[nH]1 (some centres unmarked) [Compound 11-p1] | 60.8 µM | – | –
Nc1ncnc2c1ncn2[C@@H]1O[C@@H]2COP(=O)(S)O[C@@H]3C(O)[C@@H](COP(O)(=S)O[C@H]2[C@H]1O)O[C@H]3n1cnc2c(N)ncnc21 (some centres unmarked) [Ref. 1, MLRR-CDA, reference compound] | 2.94 µM | – | –
Nc1nc2c(ncn2[C@@H]2O[C@@H]3COP(=O)(S)O[C@H]4[C@@H](O)[C@H](n5cnc6ccccc6c5=O)O[C@@H]4COP(=O)(S)O[C@@H]2[C@@H]3O)c(=O)[nH]1 (some centres unmarked) [Compound 10-p1] | 70.7 µM | – | –
Nc1ncnc2c1ncn2[C@@H]1O[C@@H]2COP(=O)(S)O[C@@H]3[C@H](O)[C@@H](COP(=O)(S)O[C@H]2[C@H]1O)O[C@H]3n1c(=O)sc2c(N)ncnc21 (some centres unmarked) [Compound 2-p1] | 45.8 µM | – | –
CO[C@H]1[C@H]2OP(=O)(S)OC[C@H]3O[C@@H](n4cnc5c(N)ncnc54)[C@H](F)[C@@H]3OP(=O)(S)OC[C@H]1O[C@H]2n1c(=O)sc2c(N)ncnc21 (some centres unmarked) [Compound 6-p1] | 2.27 µM | – | –
Nc1nc2c(ncn2[C@@H]2O[C@@H]3COP(=O)(S)O[C@H]4[C@@H](O)[C@H](n5ccc6nccn6c5=O)O[C@@H]4COP(=O)(S)O[C@@H]2[C@@H]3O)c(=O)[nH]1 (some centres unmarked) [Compound 13-p1] | 188 µM | – | –
Nc1ncnc2c1ncn2C1OC2COP(=O)(S)OC3C(O)C(COP(=O)(S)OC2C1F)OC3n1c(=O)sc2c(N)ncnc21 (centres unmarked) [Compound 4-p3] | 0.417 µM | 94.4 µM | –
Nc1ncnc2c1ncn2[C@@H]1O[C@@H]2COP(=O)(S)O[C@@H]3[C@H](O)[C@@H](COP(=O)(S)O[C@H]2[C@H]1O)O[C@H]3n1c(=O)[nH]c2c(N)ncnc21 (some centres unmarked) [Compound 1-p1] | > 10 µM | – | –
Nc1ncnc2c1ncn2C1OC2COP(=O)(S)OC3C(O)C(COP(=O)(S)OC2C1F)OC3n1c(=O)sc2c(N)ncnc21 (centres unmarked) [Compound 4-p2] | – | 36.2 µM | 0.625 µM
